These results are taken from PMC10254444, “Targeting Myeloperoxidase Activity and Neutrophil ROS Production to Modulate Redox Process: Effect of Ellagic Acid and Analogues” (Molecules, 2023).

Experiment [1] is described as follows: ABTS radical cation assay. The protocol: The ABTS assay was based on the method described by Re et al.. For the generation of ABTS^•+ radicals, sodium persulfate (2.45 mM) aqueous solution was mixed with ABTS (7 mM) and incubated overnight in the dark to obtain a dark-colored solution. Stock solution of ABTS^•+ was then diluted by adding pure methanol (100%) to obtain an absorbance of 0.70 (±0.02) at 734 nm at 30 °C. To obtain more repetition, the ABTS assay was performed using a microplate reader (ThermoLabsystem, Finland). An aliquot of 2 µL of the tested compound (EA or analogue) was added to 198 µL of ABTS^•+, and the decrease in absorbance was monitored at 740 nm after 30 min [32]. During this reaction, the blue-green ABTS radical cation is converted back into its colorless neutral form in the presence of the potential antioxidant molecule. A control consisted of 2 µL of DMSO in 198 µL of ABTS^•+ solution. The reducing capacity was determined according to the formula:% inhibition = (Acontrol − ASample) × 100/AControl(1)

Experiment [2] is described as follows: DPPH radical scavenging assay. As to the method: The DPPH assay was performed according to the method developed by Brand-Williams et al., though slightly modified. A solution of 1 mM DPPH in absolute methanol was stirred for 40 min. Absorbance of the solution was adjusted to 0.650 ± 0.020 at 517 nm using fresh absolute methanol. For replicates, the DPPH assay was performed using a microplate reader. For this, 2 µL of EA taken as a standard or sample (EA analogue) were mixed with 198 µL of DPPH solution and incubated for 30 min in the dark covered with aluminum foil. When reacting with an antioxidant, the DPPH• radical is converted into DPPH, and its color changes from purple to yellow. The antioxidant effect may be easily evaluated by observing the decrease in visible absorption. The absorbance decrease was monitored at 510 nm for 30 min with a Multiskan Ascent 96-plate reader (ThermoLabsystem, Finland). A control consisted of 2 µL of DMSO in 198 µL of DPPH solution. A similar formula (Equation (1)) was applied to determine the DPPH radical-scavenging activity.
Background: The DPPH test is a chemical assay of radical scavenging.

Experiment [3] addresses T1, Horseradish peroxidase (HRP) (Armoracia rusticana, UniProt P00433).
T1 construct: purchased Merck (Darmstadt, Germany)
T1 sequence (P00433 31-338 limits assumed): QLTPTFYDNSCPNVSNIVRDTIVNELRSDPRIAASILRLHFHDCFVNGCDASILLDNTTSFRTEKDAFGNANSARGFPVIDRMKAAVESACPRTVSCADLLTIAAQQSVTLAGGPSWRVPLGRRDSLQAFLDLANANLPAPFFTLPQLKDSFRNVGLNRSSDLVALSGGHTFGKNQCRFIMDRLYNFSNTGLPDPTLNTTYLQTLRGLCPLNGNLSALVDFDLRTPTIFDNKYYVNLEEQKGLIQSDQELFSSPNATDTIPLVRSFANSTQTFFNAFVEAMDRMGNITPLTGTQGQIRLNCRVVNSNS
The experiment can be described thus: HRP-catalyzed oxidation of L012 (chemiluminescence). Type of experiment: biochemical. As to the method: […] (HRP) reacts with hydrogen peroxide (H2O2), yielding “compound I (HRP^+.-Fe (IV=O))”, which is a reactive intermediate of HRP that is able to oxidize any potential reducing agent. Briefly, 2 μL of compound or reference molecule (ellagic acid) were incubated in phosphate buffer at pH 7.4 (153 μL, 50 mM) containing 5 μL HRP (100 µg/L), 20 μL L0-12 (10^−3 M), and 20 μL H2O2 (1 mM), and the chemiluminescence was immediately measured using a Fluoroskan Ascent 96-plate reader (ThermoLabsystem, Finland) at 37 °C for 30 min [32, 34]. The analysis was conducted in a 96-well microtiter plate. All the assays were performed in triplicate and repeated at least twice (N = 2; n = 6). The relative activity in terms of inhibition percentage of the tested compound or reference (ellagic acid) was compared to a control in the presence of DMSO taken as a solvent. The inhibition percentage was calculated using a similar formula (Equation (1)) as described above.

With `CN(C)C(=O)Oc1cc2c(=O)oc3c(OC(=O)N(C)C)c(OC(=O)N(C)C)cc4c(=O)oc(c1OC(=O)N(C)C)c2c34` [compound 6, Sevellagic acid], the “ABTS activity (in words)” value in experiment [1] was “no significant activity”. Further, the DPPH inhibition percentage in experiment [2] (at the highest concentration) is −3%. Also, the “HRP inhibiting activity (in words)” value in experiment [3] is given as “lack of effect”.
One may read the IC50 as the concentration that inhibits the measured activity by half. `CCOC1Oc2cc(C(=O)OC)cc(O)c2O1` (stereo not drawn) [compound 11, methyl 2-ethoxy-7-hydroxybenzo[d][1,3]dioxole-5-carboxylate]: the IC50 in experiment [1] was found to be 6.56 ± 0.37 µM; in experiment [2], 5.22 ± 0.05 µM; in experiment [3] it was 3.55 ± 0.37 µM.
